These results are taken from US20210162091A1, “WASH-DURABLE, FLUID ABSORBENT SUBSTRATE WITH ANTIMICROBIAL PROPERTIES AND/OR IMPROVED WASHABILITY, AND HYGIENE PRODUCT SUCH AS REUSABLE SANITARY NAPKIN” (Livinguard AG, priority 2015, published 2021).

Assay [1] deals with bacteria (Escherichia coli, Staphylococcus aureus, Pseudomonas aeruginosa, and Salmonella enterica). Briefly: Antimicrobial performance against bacteria (AATCC 100:2012, summary in words). Particulars: single agent, 6% o.w.f. chemical. In kind it is cell-based. As for the experimental part:
(§1) All microbiological tests were performed with cultures of the bacteria Escherichia coli American Type Culture Collection (ATCC) 25922, Staphylococcus aureus ATCC 6538, Pseudomonas aeruginosa ATCC 15442, Salmonella enterica ATCC 10708, and of the fungi Candida albicans ATCC 10231, and Aspergillus niger ATCC 16404.

Assay [2] deals with fungi (Candida albicans and Aspergillus niger). The assay is described as follows: Antimicrobial performance against fungi (AATCC 100:2012, summary in words). The class given is cell-based. As to conditions: single agent, 6% o.w.f. chemical. As for the experimental part: as §1

Consider silver, for which the “Efficiency for killing bacteria” value in assay [1] (adhered to cotton) was “about equally efficient for killing bacteria”; in assay [1] (adhered to polyester), “about equally efficient in killing bacteria”. Also, the results for the “Efficiency for killing fungi” value in assay [2] (adhered to cotton) and in assay [2] (adhered to polyester) were “perform poorly” and “not efficient for killing fungi”, respectively.

For `CCCCCCCCCCCCCCCCCC[N+](C)(C)CCC[Si](OC)(OC)OC` [dimethyloctadecyl[3-(trimethoxysilyl)propyl] ammonium chloride], the “Efficiency for killing bacteria” value in assay [1] (adhered to polyester) is reported as “about equally efficient in killing bacteria”. Further, the “Efficiency for killing fungi” value in assay [2] (adhered to polyester) is listed as “not efficient for killing fungi”.

As for polyhexamethylene biguanide [PHMB], the “Efficiency for killing bacteria” value in assay [1] (adhered to cotton) was “about equally efficient for killing bacteria”. For the same compound, the “Efficiency for killing fungi” value in assay [2] (adhered to cotton) is on record as “perform poorly”.

For the compound `CCCC1COC(Cn2cncn2)(c2ccc(Cl)cc2Cl)O1` (stereo not drawn) [propiconazole, reference compound], the “Efficiency for killing bacteria” value in assay [1] (adhered to cotton) is “not efficient for killing bacteria”; in assay [1] (adhered to polyester) it was “about as efficient against bacteria as silver and quaternary ammonium organosilane”. Besides, the figures for the “Efficiency for killing fungi” value in assay [2] (adhered to cotton) and in assay [2] (adhered to polyester) were “efficient for killing fungi” and “works well against fungi”, respectively.
